Patent US4442093A, “Method for administering 24,25-dihydroxycholecalciferol to persons suffering from hypercalcemia” (Kureha Kagaku Kogyo Kabushiki Kaisha, priority 1981, dated 1984)

Legend:
calcium level in serum [1] = experiment: Serum calcium in normal fasted rats (Example 2); type: in vivo, male Wistar-rats
Procedure: Four subgroups of male Wistar-rats (a subgroup consisting of 5 animals) were used as the test animals, and they were fasted one whole day before the test.
To the rats of the first group consisting of 2 subgroups, a solution of 24R,25-(OH)2 -D3 in the triglyceride ester used in Example 1 was orally administered once at a dose rate of 100 micrograms of the agent/kg body weight.
To the rats of the second group consisting of 2 subgroups, only the triglyceride used in Example 1 was administered orally, and while using them as control, the calcium level in their serum was determined as in the first group.

calcium level in serum [2] = experiment: Serum calcium in patient with sarcoidosis accompanied by hypercalcemia (Example 8); type: in vivo, human; details: person two
Procedure: To patient two diagnosed to be sarcoidosis accompanied by hypercalcemia of the calcium level in their serum of 14.0 mg/dl, the capsule composition similar to that prepared in Example 6 was administered orally at a daily dose of two capsules each containing 5 micrograms of 24R,25-(OH)2 -D3 for continuous 5 days. The calcium level in serum from the blood specimen collected on the sixth day of the commencement of the treatment was 10.8 mg/dl.

gastric ulcer = experiment: Prevention of gastric ulcer due to pyloric ligation (Example 9); type: in vivo, male Wistar rats; details: 200 µg/kg i.p. once after pyloric ligation, 15 h
Procedure: Twenty male Wistar rats of average body weight of 250 g were divided equally into two groups, and used in the following test:
After 36 hour fasting, all the rats were subjected to pyloric ligation, and the rats of the first group were administered with 2 ml/kg of Panacete®810 (triglyceride ester of C8 and C10 -fatty acid, made by Nippon Oil & Fats Co., Ltd.) containing 0.2% by weight of ethanol intraperitoneally once just after ligation. The rats of the second group were administered with 24R,25-(OH)2 -D3 dissolved in Panacete®810 containing 0.2% by weight of ethanol intraperitoneally at a dose rate of 200 micrograms/kg body weight once just after ligation. After 15 hours of administration, all the rats were subjected to gastrectomy, and the presence or absence of the gastroparietal ulcer was examined on all the resected stomach.
As a result, the occurrence of gastric ulcer was found on 9 rats of 10 rats of the first group, and on 2 rats of 10 rats of the second group.
In a similar test, 24S,25-(OH)2 -D3 was used instead of 24R,25-(OH)2 -D3 to examine its effect in preventing the occurrence of gastric ulcer due to pyloric ligation. As a result, the occurrence of gastric ulcer was recognized on 3 rats of 10 rats of the group similarly treated to those of the second group.

thymus = experiment: Weight ratio of thymus to body and number of thymocytes in rats given puromycin aminonucleoside (Example 11); type: in vivo, male JCL-Wistar rats; details: 100 µg/kg/day oral 12 days with puromycin aminonucleoside 15 mg/kg s.c.
Procedure: Thirty-two male JCL-Wistar rats in tenth week after birth were used in the present test while keeping them in a room at 21±1° C. and 60±5% RH with solid diet (CE 2) and water taken ad lib.
They were divided equally into 4 groups (one group consisting of 8 animals), their treatments in the test being as follows:
subcutaneous injection of puromycin aminonucleoside as in the second group and oral administration of 24R,25-(OH)2 -D3 dissolved in Panacete 810 once a day at a daily dose rate of 100 micrograms/kg for continuous 12 days.
subcutaneous injection of puromycin aminonucleoside as in the second group and oral administration of 24S,25-(OH)2 -D3 dissolved in Panacete 810 once a day at a daily dose rate of 100 micrograms/kg for continuous 12 days.
After uniformly loosing the thymus in phosphate buffer solution with a forcets and fully pipetting, the mixture was filtered through a stainless steel mesh (Tylar standard #200) and the filtrate containing the thymic cells was stained with Turk's solution. The thus stained specimen was subjected to counting under a microscope.

thymic cells = experiment: Pattern of the size of thymic cells by FACS (Example 12); type: in vivo, rats; details: 100 µg/kg/day oral 12 days with puromycin aminonucleoside
Procedure: After feeding the rats (the same number and the same grouping) of the same strain and treating them in the same manner as in Example 11, their thymus was resected, and an analysis of the pattern of the size of the thymic cells was carried out while using Fluorescence Activated Cell Sorter (FACS II, made by Becton-Dickinson Co.) as follows:
After loosing the resected thymus in phosphate buffer solution sufficiently with a pincette, pipetting well and passing the mixture through a standard #200 Tyler stainless steel mesh, the filtrate was treated with an aqueous 0.83% by weight ammonium chloride buffer solution containing tris-hydroxyaminomethane to carry out hemolysis of the erythrocytes intermingled therein followed by three times of washing with the phosphate buffer solution. After adjusting the concentration of the thus obtained thymic cell to 5×10^6 cells/ml with the addition of the phosphate buffer solution, the abovementioned analysis was carried out. The ratio of the number of living thymic cells to the total number of the thus obtained thymic cells was confirmed to be higher than 95% after staining with trypan blue and counting under microscope.

blood sugar level = experiment: Blood sugar in patients (Example 23); type: in vivo, human
Procedure: Three patients shown in Table 17 were treated by oral administration of a daily dose of 4 to 6 micrograms of 24R,25-(OH)2 -D3 in a form of the soft capsule composition obtained in Example 6 for 3 continuous weeks. After the completion of administration, the patient was fasted for a night and their blood specimen was collected at 11:00 a.m. in the next morning.
Effectiveness of reducing blood sugar level (ERBS) is calculated from the […]

[3] = test system: K-562 tumour cell derived from human leukemia; experiment: Inhibition of proliferation of K-562 cells (Example 24); type: cell-based; details: 3 days
Procedure: Cultured K-562 tumour cell derived from human leukemia, which proliferates in a suspended state in RPMI-1640 culture medium added with 10% by weight of fetal bovine serum was used in the following experiment.
The cells were cultured in the above-mentioned culture medium at an initial cell concentration of 1×10^5 cells/ml with or without adding 24R,25-(OH)2 -D3, which was placed in dishes kept in an incubator of an atmosphere consisting of 95% by volume of air and 5% by volume of gaseous carbon dioxide at 37° C. After culturing 3 days, the cultured medium was stained with tripan blue to count the total number of living cells. The results are shown in Table 18 with the specifically added substances into the culture medium other than fetal bovine serum of 10% by weight.

[4] = average of 3 patients, 4 to 6 µg/day oral, 3 weeks
[5] = person fourteen, 4 µg/day oral, 3 weeks
[6] = person nineteen, 6 µg/day oral, 3 weeks
[7] = person seven, 6 µg/day oral, 3 weeks

C=C1CC[C@H](O)C/C1=C/C=C1\CCC[C@]2(C)[C@@H]([C@H](C)CC[C@@H](O)C(C)(C)O)CC[C@@H]12 [24R,25-(OH)2 -D3]
Calcium level in serum (calcium level in serum [1]; 2 h after 100 µg/kg oral): 10.6 ± 0.3 mg/dL | Calcium level in serum (calcium level in serum [1]; 5 h after 100 µg/kg oral): 10.5 ± 0.3 mg/dL | calcium level in serum before treatment (calcium level in serum [2]; baseline): 14.0 mg/dL | calcium level in serum on the sixth day (calcium level in serum [2]; two 5 µg capsules/day oral, 5 days): 10.8 mg/dL | occurrence of gastric ulcer (gastric ulcer): 2 rats of 10 rats | Number of thymocytes (thymus): (32 ± 5.5) × 10^7 | Weight ratio: thymus/body (thymus): 0.00101 ± 0.00011 | number ratio of cells a little larger than normal cell to total thymic cells (thymic cells): the same as that of the control group | Blood sugar level after administration, average (blood sugar level; [4]): 129.7 ± 9.1 mg/dL | Effectiveness in reducing blood sugar level, average (blood sugar level; [4]): 86.2% | Blood sugar level before administration, average (blood sugar level; average of 3 patients, baseline): 182 ± 13.5 mg/dL | Blood sugar level after administration (blood sugar level; [5]): 120 mg/dL | Effectiveness in reducing blood sugar level (blood sugar level; [5]): 100% | Blood sugar level before administration (blood sugar level; person fourteen, baseline): 168 mg/dL | Blood sugar level after administration (blood sugar level; [6]): 138 mg/dL | Effectiveness in reducing blood sugar level (blood sugar level; [6]): 76% | Blood sugar level before administration (blood sugar level; person nineteen, baseline): 195 mg/dL | Blood sugar level after administration (blood sugar level; [7]): 131 mg/dL | Effectiveness in reducing blood sugar level (blood sugar level; [7]): 82.5% | Blood sugar level before administration (blood sugar level; person seven, baseline): 183 mg/dL | Number of K-562 cells after culture ([3]; 1 microgram/ml): 8.5 ×10^5 cells/ml | Number of K-562 cells after culture ([3]; 10 micrograms/ml): 3.5 ×10^5 cells/ml | inhibition at 1 µg/mL ([3]; Homo sapiens, K562, 72 h, 1 microgram/ml, vs dimethylsulfoxide, read-out: Inhibition Rate of K-562 cells): 14% | inhibition at 10 µg/mL ([3]; Homo sapiens, K562, 72 h, 10 micrograms/ml, vs dimethylsulfoxide, read-out: Inhibition Rate of K-562 cells): 65%
